Data reported in paper PMC3770053 (Biochemistry, 2013).

What was measured:
Test in all cases: stopped-flow fluorescence titration, T
Type in all cases: binding
[1] = target: Pol I(KF) (Klenow fragment of E. coli DNA polymerase I), N-His6/D424A/L744C/C907S, termed WT (Escherichia coli, UniProt P00582, C907S/D424A/L744C/Y766A)
[2] = target: Pol I(KF) (Klenow fragment of E. coli DNA polymerase I), N-His6/D424A/L744C/C907S, termed WT (Escherichia coli, UniProt P00582, C907S/D424A/L744C/Y766F)
[3] = target: Pol I(KF) (Klenow fragment of E. coli DNA polymerase I), N-His6/D424A/L744C/C907S, termed WT (Escherichia coli, UniProt P00582, C907S/D424A/L744C)
[4] = target: Pol I(KF) (Klenow fragment of E. coli DNA polymerase I), N-His6/D424A/L744C/C907S, termed WT (Escherichia coli, UniProt P00582, C907S/D424A/E710A/L744C)
[5] = target: Pol I(KF) (Klenow fragment of E. coli DNA polymerase I), N-His6/D424A/L744C/C907S, termed WT (Escherichia coli, UniProt P00582, C907S/D424A/E710Q/L744C)

Row | SMILES | Kd [1] [µM] | Kd [2] [µM] | Kd [3] [µM] | Kd [4] [µM] | Kd [5] [µM]
1 | Nc1nc2c(ncn2[C@@H]2O[C@H](COP(=O)(O)OP(=O)(O)OP(=O)(O)O)[C@@H](O)[C@H]2O)c(=O)[nH]1 [rGTP] | 13 | 68 | 41 | – | –
2 | Nc1nc2c(ncn2[C@H]2C[C@H](O)[C@@H](COP(=O)(O)OP(=O)(O)OP(=O)(O)O)O2)c(=O)[nH]1 [dGTP] | 2.9 ± 2 | 5.9 ± 2.4 | – | 46 ± 13 | 10 ± 1
